# According to PubChem BioAssay (NCI):
# Several values for one entry are separate records, joined by “and”; a condition that tells them apart may be missing. Equal values may be shown once.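 In this assay, cells in 96-well plates receive the compound at five concentrations for 48 hours. Endpoints are linearly interpolated between the surrounding concentrations. GI50 = concentration required for 50% inhibition of growth. The concentration for full growth arrest is given as TGI.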
# Key:
# Test in all cases: inhibition of tumour cell growth, NCI panel, 48 h
# SF-295 CNS = system: SF-295 CNS
# A498 renal = system: A498 renal
# SK-MEL-28 melanoma = system: SK-MEL-28 melanoma
# NCI-H522 lung = system: NCI-H522 lung
# HL-60(TB) leukemia = system: HL-60(TB) leukemia
# HOP-62 NSCLC = system: HOP-62 NSCLC
# OVCAR-3 ovarian = system: OVCAR-3 ovarian
# U251 CNS = system: U251 CNS
# SNB-75 CNS = system: SNB-75 CNS
# MDA-MB-435 = system: MDA-MB-435
SMILES,TGI (SF-295 CNS),TGI (A498 renal),TGI (SK-MEL-28 melanoma),TGI (NCI-H522 lung),TGI (HL-60(TB) leukemia),TGI (HOP-62 NSCLC),TGI (OVCAR-3 ovarian),TGI (U251 CNS),TGI (SNB-75 CNS),GI50 (SF-295 CNS),GI50 (A498 renal),GI50 (SK-MEL-28 melanoma),GI50 (NCI-H522 lung),GI50 (HL-60(TB) leukemia),GI50 (HOP-62 NSCLC),GI50 (OVCAR-3 ovarian),GI50 (U251 CNS),GI50 (SNB-75 CNS),GI50 (MDA-MB-435),TGI (MDA-MB-435)
CC(=O)OCC1OC(N2C(=O)C(=O)c3cc(C)ccc32)C(OC(C)=O)C(OC(C)=O)C1OC(C)=O (centres undefined),> 100 µM,> 100 µM,91.8 µM,> 100 µM,59.5 µM,> 100 µM,> 100 µM,> 100 µM,> 100 µM,,,,,,,,,,,
CN[C@@H](C)C(=O)N[C@H](C(=O)N1CCC[C@H]1C(=O)N[C@H]1c2ccccc2C[C@H]1OCC#CC#CCO[C@@H]1Cc2ccccc2[C@@H]1NC(=O)[C@@H]1CCCN1C(=O)[C@@H](NC(=O)[C@H](C)NC)C1CCCCC1)C1CCCCC1,20.8 µM,25.1 µM,3.55 µM,2.37 µM,0.252 µM,16 µM,11.9 µM,4.79 µM,1.16 µM,0.514 µM,8.8 µM,1.8 µM,0.0623 µM,< 0.01 µM,0.422 µM,2.63 µM,1.94 µM,< 0.01 µM,,
O=C1OC(CC(=O)c2ccc(Cl)c(Cl)c2)C(Cl)=C1Cl (centres undefined),> 100 µM,> 100 µM,> 100 µM,72.6 µM,> 100 µM,> 100 µM,> 100 µM,> 100 µM,> 100 µM,,,,,,,,,,,
O=Cc1ccc(-c2cc(C=O)c(-c3cccs3)[nH]2)s1,75 µM and > 100 µM,5.73 µM and 4.49 µM,75 µM and > 100 µM,19.9 µM and 57.4 µM,,72.5 µM and > 100 µM,53.7 µM and > 100 µM,62.9 µM and > 100 µM,52.2 µM and > 100 µM,36.9 µM,,> 100 µM,19.6 µM,,> 100 µM,52 µM,> 100 µM,29.5 µM,43.7 µM,75 µM and > 100 µM
COc1ccccc1N1C(=O)/C(=C/c2ccc(N(CCC#N)CCC#N)cc2C)N=C1c1cc([N+](=O)[O-])ccc1Cl,> 100 µM,> 100 µM,> 100 µM,> 100 µM,> 100 µM,> 100 µM,> 100 µM,> 100 µM,> 100 µM,,,,,,,,,,,
CC(C)(C#N)c1cc(Cn2cncn2)cc(C(C)(C)C#N)c1,> 10000 µM,,> 10000 µM,> 10000 µM,,> 10000 µM,> 10000 µM,> 10000 µM,> 10000 µM,299 µM,,> 10000 µM,2630 µM,,921 µM,> 10000 µM,> 10000 µM,> 10000 µM,> 10000 µM,> 10000 µM
COC(=O)CCc1cc(OC)c2c(c1)C(C(=O)OC)C(c1ccc(OC)c(OC)c1)O2 (centres undefined),> 100 µM,> 100 µM,> 100 µM,> 100 µM,> 100 µM,> 100 µM,> 100 µM,> 100 µM,50.6 µM,> 100 µM and 17.1 µM,> 100 µM,21.9 µM and > 100 µM,> 100 µM and 19.9 µM,,> 100 µM and 36.6 µM,> 100 µM and 13.9 µM,> 100 µM and 13.3 µM,,,
